Assay results taken from US11952584B2, “Functional peptides having antimicrobial activity against phytopathogenic microorganisms” (TOYOTA JIDOSHA KABUSHIKI KAISHA, priority 2019, dated 2024).
“And” between values parts separate entries of the source, which are not always exact repeats. Identical values can stand only once. “Also recorded” adds a separate entry of the source. Like-named read-outs stand apart in the source and are kept apart here. Ends that are not written are not given here.

Assays:
[1] = tested on: Botrytis cinerea; assay type: cell-based; conditions: for Plate antimicrobial activity test Botrytis cinerea (level): 25° C., 1 day or 2 days
[2] = tested on: Colletotrichum destructivum; assay type: cell-based; conditions: for Plate antimicrobial activity test Colletotrichum destructivum (level): 25° C., 1 day or 2 days
[3] = tested on: Colletotrichum orbiculare; assay type: cell-based; conditions: for Plate antimicrobial activity test Collectotrichum orbiculare (level): 25° C., 1 day or 2 days
[4] = tested on: Fusarium oxysporum; assay type: cell-based
[5] = tested on: Pyricularia oryzae; assay type: cell-based; conditions: for Plate antimicrobial activity test Pyricularia oryzae (level): 25° C., 1 day or 2 days
[6] = tested on: Botrytis cinerea; assay: Botrytis cinerea leaf inoculation test (tomato leaf); assay type: in vivo; conditions: for Leaf inoculation test Tomato/Botrytis cinerea: peptide 100 μM, 2 days, lesions by visual inspection; for inhibitory effects against Botrytis cinerea (in words): tomato leaf inoculation test, not shown in the figures
Procedure: In the present example, a suspension comprising Botrytis cinerea and a peptide to be tested was dropped on a plant leaf, and lesions were then observed by visual inspection to evaluate the antimicrobial activity of the tested peptide. First, the pores of Botrytis cinerea were suspended in a potato dextrose broth (PDB) to result in a spore concentration of 5×10^5 spores/ml, so as to prepare a PDB suspension spore solution. Subsequently, a peptide to be tested (TsORF18-2) was added to the PDB suspension spore solution, so that the final concentration of the peptide to be tested became 0 μM, 1 μM, 10 μM or 100 μM. It is to be noted that, as peptides to be tested, TsORF18 (full length) and TsORF18-40 a.a. were also used in the same manner as that of TsORF18-2. TsORF18 (full length) was dissolved in DMSO and was then used. On the other hand, TsORF18-2 and TsORF18-40 a.a were each dissolved in Milli-Q water and were then used. Thereafter, 10 μl each of the PDB suspension spore solution containing the peptide to be tested was dropped on the front side and the back side of the leaf of tomato (variety name: “Ponte Rosa”). In this condition, incubation was carried out at 25° C. for 2 days. Thereafter, the front and back sides of the leaf were observed by visual inspection.

[7] = tested on: Colletotrichum destructivum; assay: Colletotrichum destructivum leaf inoculation test (Chinese cabbage leaf); assay type: in vivo; conditions: 25° C.; for lesion of Colletotrichum destructivum (in words): 4 days (FIG. 3); for Leaf inoculation test Chinese cabbage/Colletotrichum destructivum: 4 days, lesions by visual inspection
Text: In the present example, a suspension comprising Colletotrichum destructivum and a peptide to be tested was dropped on a plant leaf, and lesions were then observed by visual inspection to evaluate the antimicrobial activity of the tested peptide. First, the pores of Colletotrichum destructivum were suspended in water to result in a spore concentration of 5×10^5 spores/ml, so as to prepare a water suspension of spores. Subsequently, peptides to be tested (TsORF18 (full length), TsORF18-40 a.a., and TsORF18-2) were each added to the water suspension of spores, so that the final concentration of the peptides to be tested became 0 μM, 1 μM, 10 μM or 100 μM. Thereafter, 10 μl each of the water suspension of spores containing the peptide to be tested was dropped on the front side and the back side of the leaf of Chinese cabbage (variety name: “Kigokoro 85”). In this condition, incubation was carried out at 25° C. for 4 days. Thereafter, the front and back sides of the leaf were observed by visual inspection.

[8] = tested on: Ralstonia solanacearum; conditions: peptide 100 μM, 28° C. a whole day and night; for Inhibitory rate Ralstonia solanacearum: relative to water; for OD600 Ralstonia solanacearum: water control 2.6
[9] = tested on: Erwinia carotovora subsp. carotovora
[10] = tested on: Xanthomonas oryzae pv. oryzae; conditions: for Inhibitory rate Xanthomonas oryzae pv. oryzae / OD600 Xanthomonas oryzae pv. oryzae: peptide 100 μM, 28° C. a whole day and night; for Inhibitory rate Xanthomonas oryzae pv. oryzae: relative to water; for OD600 Xanthomonas oryzae pv. oryzae: water control 2.1
[11] = tested on: Pseudomonas syringae pv. tomato
[12] = tested on: plant pathogenic filamentous fungi; assay type: cell-based; conditions: summary of Table 3
[13] = plate test, microscopic observation (FIG. 1), concentration not given

Molecule | Plate antimicrobial activity test Botrytis cinerea (level) ([1]; peptide 1 μM) | Plate antimicrobial activity test Botrytis cinerea (level) ([1]; peptide 10 μM) | Plate antimicrobial activity test Botrytis cinerea (level) ([1]; peptide 100 μM) | Plate antimicrobial activity test Colletotrichum destructivum (level) ([2]; peptide 1 μM) | Plate antimicrobial activity test Colletotrichum destructivum (level) ([2]; peptide 10 μM) | Plate antimicrobial activity test Colletotrichum destructivum (level) ([2]; peptide 100 μM) | Plate antimicrobial activity test Collectotrichum orbiculare (level) ([3]; peptide 1 μM) | Plate antimicrobial activity test Collectotrichum orbiculare (level) ([3]; peptide 10 μM) | Plate antimicrobial activity test Collectotrichum orbiculare (level) ([3]; peptide 100 μM) | Plate antimicrobial activity test Fusarium oxysporum (level) [4] | Plate antimicrobial activity test Pyricularia oryzae (level) ([5]; peptide 1 μM) | Plate antimicrobial activity test Pyricularia oryzae (level) ([5]; peptide 10 μM) | Plate antimicrobial activity test Pyricularia oryzae (level) ([5]; peptide 100 μM) | Leaf inoculation test Tomato/Botrytis cinerea ([6]; tomato leaf, 25° C.) | Leaf inoculation test Chinese cabbage/Colletotrichum destructivum ([7]; peptide 1 μM) | Leaf inoculation test Chinese cabbage/Colletotrichum destructivum ([7]; peptide 10 μM) | Leaf inoculation test Chinese cabbage/Colletotrichum destructivum ([7]; peptide 100 μM) | Inhibitory rate Ralstonia solanacearum [8] [%] | OD600 Ralstonia solanacearum [8] | OD600 Erwinia carotovora subsp. cartovora [9] | also measured
YYGFPAFSERTRKFWRIWKGKT [TsORF18-2] | 1 | 3 | 3 | 0 | 2 | 3 | 0 | 1 | 3 | 3 and 1 and 0 | 0 | 0 | 3 | ∘ | ∘ | ∘ | ∘ | 13.8 | 2.2 | 2.6 | inhibition of germination of Botrytis cinerea (in words) [1, 13]: completely inhibited; also recorded: could inhibit germination; inhibition of germination of Colletotrichum destructivum (in words) [2, 13]: completely inhibited; also recorded: could inhibit germination; inhibition of germination of Colletotrichum orbiculare (in words) [3, 13]: completely inhibited; also recorded: could inhibit germination; inhibition of germination of Fusarium oxysporum (in words) [4]: completely inhibited; also recorded: could inhibit germination; inhibition of germination of Pyricularia oryzae (in words) [5, 13]: completely inhibited; also recorded: could inhibit germination; lesion of Botrytis cinerea (in words) ([6]; 100 μM, tomato leaf, 25° C., 2 days (FIG. 2)): not observed; lesion of Colletotrichum destructivum (in words) ([7]; any concentration of 1 μM, 10 μM or 100 μM): not observed; Inhibitory rate Erwinia carotovora subsp. cartovora ([9]; 100 μM): −39.2%; Inhibitory rate Xanthomonas oryzae pv. oryzae [10]: 90.1%; OD600 Xanthomonas oryzae pv. oryzae [10]: 0.2; inhibition of growth of Xanthomonas oryzae pv. oryzae (in words) ([10]; summary of Table 4, 100 μM): could inhibit the growth; OD600 Pseudomonas syringae pv. tomato [11]: 1.9; Inhibitory rate Pseudomonas syringae pv. tomato ([11]; 100 μM): 25.3%; inhibition of growth of Pseudomonas syringae pv. tomato (in words) ([11]; 100 μM): could inhibit the growth
RKFWRIWK (listed as Solanum lycopersicum) [TsORF18-2-8aa-12] | 0 | 1 | 3 | 0 | 0 | 3 | 0 | 0 | 3 | 3 and 2 and 0 | 0 | 0 | 0 | ∘ | Δ | ∘ | ∘ | – | – | – | germination inhibitory activity against plant pathogenic filamentous fungi (in words) [12]: extremely excellent germination inhibitory activity
TRKFWRIW (listed as Solanum lycopersicum) [TsORF18-2-8aa-11] | 0 | 0 | 3 | 0 | 0 | 3 | 0 | 0 | 3 | 3 and 0 | 0 | 0 | 0 | ∘ | – | ∘ | ∘ | – | – | – | germination inhibitory activity against plant pathogenic filamentous fungi (in words) [12]: extremely excellent germination inhibitory activity
ILLSLEIFERKFSRSVWYYGFPAFSERTRKFWRIWKGKTS [TsORF18-40aa] | 0 | 0 | 3 | 0 | 0 | 3 | – | – | – | 3 and 0 | – | – | – | – | Δ | ∘ | ∘ | −7.7 | 2.8 | 2.2 | inhibitory effects against Botrytis cinerea (in words) [6]: not observed; lesion of Colletotrichum destructivum (in words) ([7]; concentration of 10 μM or 100 μM): not observed; Inhibitory rate Erwinia carotovora subsp. cartovora ([9]; 100 μM): −18.1%; Inhibitory rate Xanthomonas oryzae pv. oryzae [10]: −5.8%; OD600 Xanthomonas oryzae pv. oryzae [10]: 2.2; OD600 Pseudomonas syringae pv. tomato [11]: 1.9; Inhibitory rate Pseudomonas syringae pv. tomato ([11]; 100 μM): 25.8%
mdfimlaaaivkesfiflligllaaILLSLEIFERKFSRSVWYYGFPAFSERTRKFWRIWKGK TS (peptide, listed as Solanum lycopersicum, peptide of 65 amino acid residues from tomato xylem sap) MDFIMLAAAIVKESFIFLLIGLLAAILLSLEIFERKFSRSVWYYGFPAFSERTRKFWRIWKGKTS | 0 | 0 | 0 | 0 | 0 | 1 | – | – | – | 0 | – | – | – | – | – | – | – | −0.9 | 2.6 | 1.9 | inhibitory effects against Botrytis cinerea (in words) [6]: not observed; Inhibitory rate Erwinia carotovora subsp. cartovora [9]: −3.7%; Inhibitory rate Xanthomonas oryzae pv. oryzae [10]: 6.5%; OD600 Xanthomonas oryzae pv. oryzae [10]: 2.0; Inhibitory rate Pseudomonas syringae pv. tomato [11]: −3.1%; OD600 Pseudomonas syringae pv. tomato [11]: 2.6
